For series [1] the following is noted: cited from earlier work; for Solubility: solvents as named in the cell, in water, hexane, ether.
The subject of another series is cell death. The following applies: compared with curcumin; cited from earlier work.
For series [2] the following is noted: compared with Cisplatin; cited from earlier work.
The conditions of series [3]: compared with curcumin; cited from earlier work.
The conditions of series [4]: compared with curcumin; cited from earlier work. The source holds these as a separate data set.
In another series the test system is IKK. The settings on record: cited from earlier work.
Another series relates to tumor. The settings on record: compared with Cisplatin; cited from earlier work.
The next series deals with plasma protein. The series is described as follows: Behaviour of curcumin in the blood stream (plasma protein binding). The format is in vitro ADME. The settings on record: higher physiological pH of blood. From the text:
Since the hydroxyl groups are present in undissociated form when the pH is acidic, the curcuminoids' stability is greater in this environment.

Data on four molecules can be found in US11382871B2 (BRIU GmbH, priority 2012, dated 2022).

Structures are written as SMILES. Like-named read-outs stand apart in the source and are kept apart here.

As for `O=C(/C=C/c1ccc(O)cc1)CC(=O)/C=C/c1ccc(O)cc1` [Bisdemethoxy-CUR, Bis-4-hydroxycinnamoyl methane], the Solubility entry in series [1] is given as “Insoluble in water, hexane, ether;”.

`COc1cc(/C=C/C(=O)CC(=O)/C=C/c2ccc(O)cc2)ccc1O` [Demethoxy-CUR, 4-Hydroxycinnamoyl feruloyl methane]: the Solubility entry in series [1] was “Insoluble in water, hexane, ether;”.

With `Cl.O=C1/C(=C/c2ccccc2F)CNC/C1=C\c1ccccc1F` [EF-24], the “Potency in inducing cell death relative to curcumin” value in the series with cell death was 10 times. The “Potential of inducing adverse effects” value in series [2] is “significantly lower potential of inducing adverse effects”. The “Potency relative to curcumin” value in series [3] was “more potent than curcumin”. In addition, the Bioavailability entry in series [4] is listed as “considerably higher bioavailability”. Moreover, the IKK inhibition result with IKK was “IKK inhibitor”. The “Effectiveness in anti-tumor screening” value in the series with tumor is on record as “more effective than Cisplatin”.

For the molecule `COc1cc(/C=C/C(=O)CC(=O)/C=C/c2ccc(O)c(OC)c2)ccc1O` [curcumin, Diferuloylmethane], in series [1] (listed as CUR), the Solubility entry is given as “Insoluble in water, hexane, ether;”. Besides, the Solubility in water result in series [1] (water) is “insoluble in water”. In addition, the “Plasma protein binding on entering the blood stream” value in the series on plasma protein is given as “binds to plasma protein”.
